Measured values from patent publication US9592210B2, “1-phenylalkanecarboxylic acid derivatives for the treatment of cognitive impairment” (Chiesi Farmaceutici S.p.A., priority 2011, dated 2017).
Where two headings read alike, the source gives them in different places.

Legend:
γ-secretase [1] = details: cited from earlier work
[2] = dogs, cited from earlier work
[3] = mice, oral; cited from earlier work
[4] = system: transgenic mouse models of AD; details: cited from earlier work
[5] = Fear conditioning (preclinical); type: in vivo; details: preclinical studies
[6] = guinea-pigs, cited from earlier work
[7] = system: Notch intracellular cleavage in human embryonic kidney 293 swe cells; details: 5 μM; cited from earlier work
NICD-responsive genes = details: 100 μM; cited from earlier work
[8] = rats, oral; cited from earlier work
COX-2 = target: T1, COX-2 (Homo sapiens, UniProt P35354); details: concentrations up to 300 μM; cited from earlier work
T1 sequence (P35354 18-604): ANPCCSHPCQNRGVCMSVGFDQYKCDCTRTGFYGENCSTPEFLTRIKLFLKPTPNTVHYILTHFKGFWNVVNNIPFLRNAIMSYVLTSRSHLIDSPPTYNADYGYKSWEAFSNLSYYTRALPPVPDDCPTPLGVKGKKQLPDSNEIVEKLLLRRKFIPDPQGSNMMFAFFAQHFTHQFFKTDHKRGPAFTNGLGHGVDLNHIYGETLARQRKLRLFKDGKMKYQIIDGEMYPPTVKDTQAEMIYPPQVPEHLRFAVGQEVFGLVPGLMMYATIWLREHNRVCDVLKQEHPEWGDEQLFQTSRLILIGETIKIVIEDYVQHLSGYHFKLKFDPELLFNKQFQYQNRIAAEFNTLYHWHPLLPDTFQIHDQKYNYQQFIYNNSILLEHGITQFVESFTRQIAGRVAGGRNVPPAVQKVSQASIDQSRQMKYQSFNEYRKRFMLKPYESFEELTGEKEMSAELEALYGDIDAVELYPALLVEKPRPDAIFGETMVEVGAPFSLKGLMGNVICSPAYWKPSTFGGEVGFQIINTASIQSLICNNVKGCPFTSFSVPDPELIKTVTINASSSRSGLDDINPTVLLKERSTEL

[9] = Morris water maze (preclinical); type: in vivo; details: preclinical study
[10] = Object recognition test (preclinical); type: in vivo; details: preclinical stage
COX-1 = COX-1 (Homo sapiens, UniProt P23219); details: concentrations up to 100 μM; cited from earlier work
COX-1, sequence (P23219 24-599): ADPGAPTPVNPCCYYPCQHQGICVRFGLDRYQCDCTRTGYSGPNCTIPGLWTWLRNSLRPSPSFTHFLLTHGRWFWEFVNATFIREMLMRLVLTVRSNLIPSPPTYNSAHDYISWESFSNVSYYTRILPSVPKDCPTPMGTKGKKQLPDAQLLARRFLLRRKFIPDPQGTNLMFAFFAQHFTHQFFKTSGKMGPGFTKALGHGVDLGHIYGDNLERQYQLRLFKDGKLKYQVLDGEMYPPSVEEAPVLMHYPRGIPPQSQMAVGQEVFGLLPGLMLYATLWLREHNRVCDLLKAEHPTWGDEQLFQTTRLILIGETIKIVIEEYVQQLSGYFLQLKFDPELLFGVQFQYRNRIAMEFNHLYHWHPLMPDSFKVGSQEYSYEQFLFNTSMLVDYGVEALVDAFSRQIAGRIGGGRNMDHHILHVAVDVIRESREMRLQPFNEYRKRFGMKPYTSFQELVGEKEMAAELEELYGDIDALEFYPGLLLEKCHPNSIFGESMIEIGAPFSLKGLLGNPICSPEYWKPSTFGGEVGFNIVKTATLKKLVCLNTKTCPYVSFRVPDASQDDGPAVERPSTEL

[11] = species not given; follows mice and rats; cited from earlier work
[12] = system: human neuroglioma cells over-expressing the Swedish mutated APP (H4swe); details: read-out: IC50 for lowering Aβ42 secretion; cited from earlier work
AD patients = details: cited from earlier work
dendritic spine density = details: mice; cited from earlier work
γ-secretase [13] = details: cited from earlier work; remark: listed apart in the source

## CC(C)Cc1ccc(C(C)C(=O)O)cc1 (stereo not drawn) [ibuprofen]
γ-secretase [1]
  formation of Aβ38: increase
  production of Aβ42: lower

## CC(C(=O)O)c1ccc(-c2ccccc2)c(F)c1 (stereo not drawn) [flurbiprofen]
γ-secretase [1]
  formation of Aβ38: increase
  production of Aβ42: lower

## O=C(O)C1(c2ccc(-c3ccc(Cl)c(Cl)c3)c(F)c2)CC1 [CHF 5074, 1-(3′,4′-dichloro-2-fluorobiphenyl-4-yl)cyclopropanecarboxylic acid]
[2]; oral
  absorbed by oral route: 80-100%
[2]
  plasma elimination t1/2: ≈ 24 hours
[3]
  absorbed orally: 74%
[4]; 60 mg/kg/day, prolonged treatment for 4-9 months, mice
  tolerability: well tolerated
[4]; oral doses of 60 mg/kg/day
  neuropathological and behavioral activity: active from neuropathological and behavioral points of view
[5]
  fear conditioning performance: significantly improved
[6]; after oral administration
  plasma elimination half-life t1/2: ≈ 30 hours
[6]
  brain penetration: 3-9%
[7]
  effects on Notch intracellular cleavage: no effects were observed
NICD-responsive genes
  expression profile of several NICD-responsive genes: does not alter
[8]
  absorbed orally: 50%
COX-2
  inhibitory activity on COX-2: does not display inhibitory activity
[9]
  Morris water maze performance: marginal effects
[10]
  object recognition test performance: positive effects
COX-1
  inhibitory activity on COX-1: does not display inhibitory activity
[11]
  brain levels as % of corresponding plasma concentrations: 3-14%
[12]
  IC50: 3.6 µM

## CSc1ccc(/C=C2/C(C)=C(CC(=O)O)c3cc(F)ccc32)cc1 [sulindac sulfide]
γ-secretase [1]
  formation of Aβ38: increase
  production of Aβ42: lower

## COc1ccc2c(c1)c(CC(=O)O)c(C)n2C(=O)c1ccc(Cl)cc1 [indomethacin]
γ-secretase [1]
  formation of Aβ38: increase
  production of Aβ42: lower

## CC(C)[C@H](O)C(=O)N[C@@H](C)C(=O)N[C@@H]1C(=O)N(C)CCc2ccccc21 [semagacestat]
AD patients; interim analysis of two Phase 3 trials
  cognition and ability to complete activities of daily living versus placebo: worsened over time to a statistically significantly higher rate
AD patients; two 21-month Phase 3 trials, more than 2,600 AD patients
  rate of skin cancer compared to placebo: increased rate of skin cancer
Dendritic spine density
  dendritic spine density: decrease
γ-secretase [13]; brain and CSF
  brain and CSF levels of Aβ42 peptide: increase
γ-secretase [13]; brain
  brain level of C-terminal fragment of APP (CTFβ or C99): accumulation
